In US20120064056A1, “DICHLORACETATE IN COMBINATION WITH CLINICALLY HIGH LEVELS OF CARDIOPROTECTIVE OR HEMODYNAMIC DRUGS” (THE GOVERNORS OF THE UNIVERSITY OF ALBERTA TEC Edmonton, priority 2002, published 2012):

What was measured:
[1] = system: isolated rat hearts subjected to global ischemia; test: Isolated working rat heart, global ischemia and reperfusion: glycolysis and glucose oxidation; conditions: digoxin 3 nM, metoprolol 1 μM
Description: Hearts were trimmed of excess tissue, and the pulmonary artery and the opening to the left atrium were then cannulated. After 15 min of Langendorff perfusion, hearts were switched to the working mode by clamping the aortic inflow line from the Langendorff reservoir and opening the left atrial inflow line. The perfusate was delivered from an oxygenator into the left atrium at a constant preload pressure of 11 mm Hg. […] The afterload was set at a hydrostatic pressure of 80 mm Hg. […] Palmitate was bound to the albumin as described previously ([…]., et al. J Biol. Chem. 267:3825-3831 (1992)). […] For the aerobic model hearts, all tested compounds were introduced into the heart 5 minutes into the working mode following Langendorff Perfusion. […] All tested compounds were introduced into the perfusate five minutes prior to reperfusion. […] Am J Physiol. 270:[…]. Am J Cardiol. 80:3A-10A (1997)). […] In the global ischemia model, the total myocardial ^3H2O and ^14CO2 production were determined at 20 minute intervals for the 60 minute reperfusion period. […] L., et al. Biochemistr. 1923:6503-6062 (1984)).

[2] = system: isolated rat hearts; test: Isolated working rat heart, aerobic perfusion: cardiac function and efficiency; parameters: Cardiac Work (CO · PSP): unit not given beside the values
Description: Rat hearts were cannulated for isolated working heart perfusions as described in “An imbalance between glycolysis and glucose oxidation is a possible explanation for the detrimental effects of high levels of fatty acids during aerobic reperfusion of ischemic hearts.”, (J Pharmacol Exp Ther. 264:135 (1993); herein incorporated by reference. In brief, male Sprague-Dawley rats (0.3-0.35 kg) were anesthetized with pentobarbital sodium (60 mg/kg IP) and hearts were quickly excised, the aorta was cannulated and a retrograde perfusion at 37° C. was initiated at a hydrostatic pressure of 60 mm Hg. Hearts were trimmed of excess tissue, and the pulmonary artery and the opening to the left atrium were then cannulated. After 15 min of Langendorff perfusion, hearts were switched to the working mode by clamping the aortic inflow line from the Langendorff reservoir and opening the left atrial inflow line. The perfusate was delivered from an oxygenator into the left atrium at a constant preload pressure of 11 mm Hg. Perfusate was ejected from spontaneously beating hearts into a compliance chamber (containing 1 ml of air) and into the aortic outflow line. The afterload was set at a hydrostatic pressure of 80 mm Hg. All working hearts were perfused with Krebs'-Henseleit solution containing calcium 2.5 mmol/L, glucose 5.5 mmol/L, 3% bovine serum albumin (Fraction V, Boehringer Mannheim), and with 1.2 mmol/L palmitate. Palmitate was bound to the albumin as described previously (Saddik M., et al. J Biol. Chem. 267:3825-3831 (1992)). The perfusate was recirculated, and pH was adjusted to 7.4 by bubbling with a mixture containing 95% O2 and 5% CO2. For the aerobic model hearts, all tested compounds were introduced into the heart 5 minutes into the working mode following Langendorff Perfusion.
Spontaneously beating hearts were used in all perfusions. Heart rate and aortic pressure were measured with a Biopac Systems Inc. blood pressure transducer connected to the aortic outflow line. Cardiac output and aortic flow were measured with Transonic T206 ultrasonic flow probes in the preload and afterload lines, respectively. Coronary flow was calculated as the difference between cardiac output and aortic flow. The O2 contents of the perfusate entering and leaving the heart were measured using YSI™ micro oxygen electrodes placed in the preload and pulmonary arterial lines, respectively. Myocardial O2 consumption (MVO2) was calculated according to the Fick principle, using coronary flow rates and the arteriovenous difference in perfusate O2 concentration. Cardiac work was calculated as the product of systolic pressure and cardiac output. Cardiac efficiency was defined as a ratio of cardiac work to MVO2.

[3] = aerobically perfused, DCA 2 mM, diltiazem 0.8 μM, digoxin 3 nM, metoprolol 1 μM, dobutamine 1 μM

Question: For COCCc1ccc(OCC(O)CNC(C)C)cc1 (stereo not shown) [Metoprolol, metoprolol], which “glycolytic rates as compared to control, in words” value ([1]; FIG. 10, FIG. 16, DCA 2 mM) is on record?
Answer: neither DCA, metoprolol or metoprolol with DCA altered glycolytic rates

Question: And the “glucose oxidation rates, in words” value ([1]; reperfusion period, FIG. 9, FIG. 15, DCA 2 mM)?
Answer: no effect

Question: And the “Aortic Outflow” value [2, 3]?
Answer: 35 ± 5 mL/min

Question: What about the “Cardiac Efficiency (CW · O2^−1)” value [2, 3] of the same molecule?
Answer: 1.85 ± 0.15

Question: And the “Cardiac Output” value [2, 3]?
Answer: 55 ± 8 mL/min

Question: What about the “Cardiac Work (CO · PSP)” value [2, 3] of the same molecule?
Answer: 71 ± 10

Question: What about the “Coronary Flow” value [2, 3] of the same molecule?
Answer: 20 ± 3 mL/min

Question: What about the “HR × PSP” value [2, 3] of the same molecule?
Answer: 32 ± 4 beats · min^−1 · mmHg · 10^−2

Question: And the “Heart Rate” value [2, 3]?
Answer: 250 ± 26 beats · min^−1

Question: What about the “O2 Consumption” value [2, 3] of the same molecule?
Answer: 40 ± 9 μmolO2 · g dry wt^−1 · min^−1

Question: What about the “Peak Systolic Pressure” value [2, 3] of the same molecule?
Answer: 130 ± 2 mmHg

Question: What about the “effect on functional parameters shown in Table 2 incl. O2 consumption and cardiac efficiency, in words” value ([2]; normal hearts, aerobic, compared to control) of the same molecule?
Answer: no significant effect

Question: And the “effect on functional parameters shown in Table 1 (heart rate, peak systolic pressure, HR×PSP), in words” value ([2]; normal hearts, aerobic, compared to control (DCA and dobutamine: compared to dobutamine alone))?
Answer: no significant effect
